Entries after “also recorded” stand apart in the source; their conditions may differ. Marks after values point to notes of the source that are not given here. Blank lines part the entries; values can stand above or below the molecule they belong to.
What was measured:
[1] = biological target: T1, membrane-bound human MAO-B (Homo sapiens, UniProt P27338); experiment: MAO-B inhibition, H2O2/horseradish peroxidase coupled fluorescence assay with tyramine; format: biochemical; details: for maximum inhibition (%) hMAO-B: from dose–response curve, in parentheses after IC50, given if less than 95%; for inhibition at 10 µM: read-out: % inhibition at 10 μM hMAO-B, 10 μM compound, tyramine 0.32 mM (2 × KM), average of two independent experiments; for IC50 (μM) hMAO-B / IC50: tyramine at 2 × KM, seven concentrations 0.01–300 µM, ± s.d., two independent experiments; for IC50: read-out: IC50 (μM) hMAO-B
T1 sequence (P27338 1-520): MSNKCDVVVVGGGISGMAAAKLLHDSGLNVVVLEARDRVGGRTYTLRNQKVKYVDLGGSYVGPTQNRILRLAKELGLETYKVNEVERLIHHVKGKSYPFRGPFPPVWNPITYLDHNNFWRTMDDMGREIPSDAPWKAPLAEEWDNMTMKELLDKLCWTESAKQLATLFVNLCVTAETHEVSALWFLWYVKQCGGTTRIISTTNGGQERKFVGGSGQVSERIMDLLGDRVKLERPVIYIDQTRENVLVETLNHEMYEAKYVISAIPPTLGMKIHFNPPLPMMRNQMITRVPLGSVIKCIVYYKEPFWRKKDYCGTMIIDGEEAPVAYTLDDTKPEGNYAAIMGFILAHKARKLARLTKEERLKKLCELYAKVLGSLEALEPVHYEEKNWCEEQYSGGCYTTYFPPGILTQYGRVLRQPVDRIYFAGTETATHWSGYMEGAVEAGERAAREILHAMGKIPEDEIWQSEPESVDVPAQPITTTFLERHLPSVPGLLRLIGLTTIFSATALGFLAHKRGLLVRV
Description: (§1) Incomplete inhibition of activity could arise either from indirect effects on these enzymes or from the compounds acting as substrates at the highest concentrations.
(§2) The activity of MAO was determined using the coupled assay method of [41, 42] in which the product, H2O2, acts with horseradish peroxidase to convert 10-acetyl-3,7-dihydroxyphenoxazine to the fluorescent resorufin. […] The data were analysed using the equation for a three-parameter curve in Graphpad PRISM v. 4, and the % inhibition calculated from the top and bottom of the resulting curve.

[2] = biological target: T2, membrane-bound human MAO-A (Homo sapiens, UniProt P21397); experiment: MAO-A inhibition, H2O2/horseradish peroxidase coupled fluorescence assay with tyramine; format: biochemical; details: for mechanism of inhibition of MAO-A: 30 min preincubation, dilution ×100, increasing substrate concentration; for inhibition at 10 µM: read-out: % inhibition at 10 μM hMAO-A; for inhibition of MAO-A compared with MAO-B in the screen: screen at 10 µM; for IC50 (μM) hMAO-A / IC50: tyramine at 2 × KM, seven concentrations 0.01–300 µM, ± s.d., two independent experiments; for IC50: read-out: IC50 (μM) hMAO-A
T2 sequence (P21397 1-527): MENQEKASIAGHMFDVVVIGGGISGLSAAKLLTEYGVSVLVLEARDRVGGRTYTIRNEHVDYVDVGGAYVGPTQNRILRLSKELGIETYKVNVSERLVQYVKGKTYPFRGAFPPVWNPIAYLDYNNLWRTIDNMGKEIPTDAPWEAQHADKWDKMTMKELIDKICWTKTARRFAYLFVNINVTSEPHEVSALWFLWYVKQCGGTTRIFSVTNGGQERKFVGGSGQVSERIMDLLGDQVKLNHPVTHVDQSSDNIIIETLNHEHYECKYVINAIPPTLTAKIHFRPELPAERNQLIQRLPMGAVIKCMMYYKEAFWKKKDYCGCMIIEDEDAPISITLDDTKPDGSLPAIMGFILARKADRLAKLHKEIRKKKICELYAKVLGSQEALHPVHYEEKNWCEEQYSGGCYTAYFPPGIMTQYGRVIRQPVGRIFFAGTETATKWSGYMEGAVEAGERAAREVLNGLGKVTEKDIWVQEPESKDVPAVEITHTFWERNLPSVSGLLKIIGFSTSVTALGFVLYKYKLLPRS
Description: as §1, §2

[3] = biological target: T3, MAO-A (Homo sapiens, UniProt P21397); experiment: Oxidation of compound by MAO-A in the standard coupled assay in the absence of tyramine; format: biochemical
T3 sequence (P21397 1-527): T2 sequence (P21397 1-527)
Description: (§3) Compound 6 in the screening assay with 10 µM inhibitor gave an increased rate of appearance of fluorescence indicating faster production of the product H2O2 (not the slower rate observed with other compounds that inhibit MAO activity).
(§4) Figure 3. Oxidation of 6 (squares) but not 12d (triangles) by MAO-A. The concentration of compound was varied in the standard assay coupled to the production of H2O2 but in the absence of the substrate tyramine.
(§5) The activity of MAO was determined using the coupled assay method of [41, 42] in which the product, H2O2, acts with horseradish peroxidase to convert 10-acetyl-3,7-dihydroxyphenoxazine to the fluorescent resorufin. […] For compounds that gave more than 30% inhibition, the IC50 was determined using seven concentrations of each compound (0.01–300 μM) with substrate at 2 × KM. […] The data were analysed using the equation for a three-parameter curve in Graphpad PRISM v. 4, and the % inhibition calculated from the top and bottom of the resulting curve.

[4] = system: MAO-A; set-up: method as in PMID 16356714, PMID 20708306, PMID 19043245, PMID 25707011, PMID 25922182; details: lead structure of Chart 1, earlier series of the group ref 21–25; cited from earlier work
[5] = substrate: COc1cc(/C=N/NC(=O)CNC(=O)c2cc(Cl)ccc2/N=C/c2ccccc2)ccc1O; experiment: Oxidation of compound by MAO-A in the standard coupled assay in the absence of tyramine; format: biochemical, human; details: other: compound as substrate
Description: as §3, §4, §5

[6] = 10 μM compound, tyramine 0.8 mM (2 × KM), average of two independent experiments

melting point: 240 to 242 °C
maximum inhibition (%) hMAO-B [1]: full inhibition
inhibition at 10 µM [1]: 72%
IC50 (μM) hMAO-B [1]: micromolar affinity
IC50 [1]: 0.44 ± 0.1 µM
mechanism of inhibition of MAO-A [2]: competitive inhibition
selectivity MAO-A versus MAO-B ([2]; from IC50 values on MAO-A and MAO-B): non-selective
inhibition at 10 µM [2, 6]: 70%
IC50 (μM) hMAO-A [2]: micromolar potency
IC50 [2]: 0.31 ± 0.11 µM
Molecule: COc1cc(C=NNC(=O)CN2C(=O)c3cc(Cl)ccc3NC2c2ccccc2)ccc1O (centres unmarked) [5h, 2-(6-Chloro-4-oxo-2-phenyl-1,4-dihydroquinazolin-3(2H)-yl)-N'-(4-hydroxy-3-methoxybenzylidene)-acetohydrazide]
inhibition of MAO-A compared with MAO-B in the screen [2]: equal inhibition of MAO-A and MAO-B; also recorded: equally inhibited

melting point: 242 to 245 °C
inhibition at 10 µM [1]: 26%
inhibition at 10 µM [2, 6]: 6%
Molecule: Cc1nc2ccccc2c(=O)n1CC(=O)NN=Cc1ccccc1 [12a, N'-Benzylidene-2-(2-methyl-4-oxoquinazolin-3(4H)-yl)acetohydrazide]

melting point: 192 to 195 °C
inhibition at 10 µM [1]: 16%
IC50 [1]: > 100 µM
inhibition at 10 µM [2, 6]: 16%
Molecule: Cc1nc2ccccc2c(=O)n1CC(=O)NN=Cc1ccc(O)cc1 [12b, N'-(4-Hydroxybenzylidene)-2-(2-methyl-4-oxoquinazolin-3(4H)-yl)acetohydrazide]
inhibition of MAO-A compared with MAO-B in the screen [2]: equal inhibition of MAO-A and MAO-B; also recorded: equally inhibited

melting point: > 229 °C (dec.)
inhibition at 10 µM [1]: 21%
inhibition at 10 µM [2, 6]: 5%
Molecule: COc1ccc(C=NNC(=O)Cn2c(C)nc3ccccc3c2=O)cc1 [12c, N'-(4-Methoxybenzylidene)-2-(2-methyl-4-oxoquinazolin-3(4H)-yl)acetohydrazide]

melting point: 258 to 260 °C
mechanism of inhibition of MAO-B ([1]; 30 min preincubation, dilution ×100, increasing substrate concentration): competitive inhibition
maximum inhibition (%) hMAO-B [1]: full inhibition
inhibition at 10 µM [1]: 52%
IC50 (μM) hMAO-B [1]: micromolar affinity
IC50 [1]: 3.62 ± 0.69 µM
mechanism of inhibition of MAO-A [2]: competitive inhibition
maximum inhibition (%) hMAO-A ([2]; from dose–response curve, in parentheses after IC50, given if less than 95%): 32%
inhibition at 10 µM [2, 6]: 27%
IC50 [2]: 1.41 ± 0.47 µM
Molecule: COc1cc(C=NNC(=O)Cn2c(C)nc3ccccc3c2=O)ccc1O [12d, N'-(4-Hydroxy-3-methoxybenzylidene)-2-(2-methyl-4-oxoquinazolin-3(4H)-yl)acetohydrazide]

melting point: 257 to 259 °C
inhibition at 10 µM [1]: 12%
IC50 [1]: 9 ± 2.3 µM
Vmax for oxidation by MAO-A as % of the Vmax for tyramine ([3]; same conditions, tyramine run in parallel): 77%
% inhibition at 10 μM hMAO-A [2, 6]: none
IC50 (μM) hMAO-A [2]: (rate increases)^c
Molecule: COc1cc(/C=N/NC(=O)CNC(=O)c2cc(Cl)ccc2/N=C/c2ccccc2)ccc1O [compound 6, 2-(((E)-benzylidene)amino)-5-chloro-N-(2-(2-((E)-4-hydroxy-3-methoxybenzylidene)hydrazinyl)-2-oxoethyl)benzamide]
H2O2 production / oxidation by MAO-A in the absence of the normal substrate ([3]; absence of tyramine): gave a measurable rate of H2O2 production

Molecule: C/C(=N/NC(=O)Cn1c(=O)c(Cc2ccccc2)nc2ccccc21)c1ccc(O)cc1 [lead structure]
MAO-A activity PIC50 [4]: 7.8

B1: MAO-A (Homo sapiens) (protein)
chain: T2 sequence (P21397 1-527)
Km [5]: 35.5 µM
